Data set [1] in a line: Micro-PET imaging studies. The data set is classed as in vivo. Conditions: for micro-PET image findings: 30 minutes, 1 hour and 2 hours post-injection; for wash out of activity with time (micro-PET): up to 2 hours post-injection. The protocol:
PET imaging was performed using a Micro-PET scanner (Concorde Microsystems, Inc.), with 120 transaxial planes and spatial resolution of 2.0 mm, at 30 minutes, 1 hour and 2 hours post-injection. Images were reconstructed using Ordered Subset Expectation Maximization (OSEM) algorithm.

The conditions of data set [2]: mouse, in vivo.
Data set [3] is described as follows: Blood clearance after intravenous injection. Type of data set: in vivo, athymic nude mice. The conditions noted are these: blood samples 1-120 minutes after i.v. injection. The protocol: Activity injected into each mouse was measured in a dose calibrator (Capintec). […] Activity in each blood sample was measured by a gamma counter, standardized for injected dose, and % injected dose per gram was calculated. Mean % injected dose per gram was plotted against time to obtain the blood clearance curve for each compound. Animals were anesthetized with Nembutal (40 mg/kg) and sacrificed at 2 hours post-injection. All organs including tumor were separated and weighed. Radioactivity in each organ was measured using a gamma counter. For each mouse, radioactivity uptake was expressed as % injected dose per gram, and as ratio of organ to blood uptake.

The target of data set [4] is T1, herpes simplex virus thymidine kinase (HSV-tk) (Human herpesvirus 1, UniProt P0DTH5).
T1 construct: expressed in transfected cells
T1 sequence (P0DTH5 whole entry): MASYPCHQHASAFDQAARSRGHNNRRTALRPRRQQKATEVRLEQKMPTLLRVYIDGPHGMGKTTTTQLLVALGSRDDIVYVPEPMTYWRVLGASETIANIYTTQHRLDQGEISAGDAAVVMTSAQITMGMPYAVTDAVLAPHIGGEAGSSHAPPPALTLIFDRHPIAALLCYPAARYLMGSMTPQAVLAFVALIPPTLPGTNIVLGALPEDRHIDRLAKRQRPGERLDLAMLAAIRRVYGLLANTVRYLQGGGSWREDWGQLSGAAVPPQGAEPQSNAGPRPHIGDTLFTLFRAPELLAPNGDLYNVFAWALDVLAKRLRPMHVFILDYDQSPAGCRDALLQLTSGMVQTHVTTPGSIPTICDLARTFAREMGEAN
The data set can be described thus: Tumor uptake in HSV-tk transduced versus wild type tumors on the same animal. Type of data set: in vivo. Conditions: tumor uptake in transduced and wild type cells comparable.

In data set [5] the test system is human colon tumor xenografts. Conditions: Carson; Takahashi; cited from earlier work.
The conditions of data set [6]: cited from earlier work.

Turning to `Nc1ncnc2c1ncn2[C@@H]1O[C@H](CO)[C@H]([18F])[C@H]1O` [[^18F]-FXA, 3′-deoxy-3′-[^18F]-fluoro-9-β-D-xylofuranosyladenine], in data set [1], the micro-PET image findings result is recorded as “activity is in the heart” and the “wash out of activity with time (micro-PET)” value is on record as “did not wash out in 2 hours post-injection”. In data set [2], the “tissue of highest uptake” value is recorded as “heart” and the tumor/blood ratio entry is listed as “less than 1”. In addition, the blood clearance pattern entry in data set [3] was “clear rapidly from the blood initially, then slow down after 20 minutes post-injection”.

As to `Nc1ncnc2c1ncn2[C@@H]1O[C@H](CO)[C@@H](O)[C@@H]1[18F]` [[^18F]-FAA, 2′-deoxy-2′-[^18F]-fluoro-9-β-D-arabinofuranosyladenine], in data set [1], the micro-PET image findings result was “high uptake in spleen” and the “wash out of activity with time (micro-PET)” value is “wash out of activity with time was minimal”. Further, the “substrate for HSV-tk” value in data set [4] is reported as “not a substrate for HSV-tk”. Moreover, in data set [2], the Uptake in kidney is 3.5%, the Uptake in liver came out at 2.4%, the “tissue of highest uptake” value is “spleen” and the “tumor uptake compared to the background activity” value is “more than 3 fold”. The “uptake in tumors compared to blood” value in data set [2] stood at 3.3 fold. Also, in data set [3], the blood clearance pattern entry was “clear rapidly from the blood initially, then slow down after 20 minutes post-injection”.

For `Nc1nc(Cl)nc2c1ncn2[C@@H]1O[C@H](CO)[C@@H](O)[C@@H]1F` [2′-deoxy-2′-fluoro-2-chloro-9-β-D-arabinofuranosyladenine], the “activity against human colon tumor xenografts” value in data set [5] is recorded as “active”.

As to `Nc1nc(=O)n([C@@H]2O[C@H](CO)[C@@H](O)[C@@H]2F)cc1[125I]` [[^125I] labeled FIAC, [^125I]-2′-fluoro-5-iodo-1-β-D-arabinofuranosylcytosine], in data set [6], the deiodination in vivo result was “extensive deiodination in vivo”.
